How the values were obtained:
HCT-116 wild-type cells = assay: Proliferation inhibitory activity of compound on HCT-116 Wild Type cells; type: cell-based; conditions: Cell-Titer Glo, 8 d, 0-10,000 nM, 2-fold dilution, 10 points, 0.1% DMSO
Protocol: Test case 2: Test on proliferation inhibitory activity of compound on HCT-116 Wild Type cells Materials and cells: HCT-116 wild-type cells were purchased from Botron Healthcare (China); RPMI-1640 medium, fetal bovine serum and penicillin-streptomycin were purchased from Thermo Fisher (United States); 384-well plates were purchased from PerkinElmer (United States); Cell-Titer Glo kit was purchased from Promega (United States).
Cell culture: HCT-116 wild-type cells were cultured with a RPMI-1640 medium containing […]+1% penicillin-streptomycin at 37 °C in 5% CO2. Only cells in the logarithmic growth phase could be used for the test.
Test of cell proliferation activity: Cell-Titer Glo kit was used to test the proliferation inhibitory activity of the compound on HCT-116 wild-type cells. The cell concentration was adjusted, 40 μL per well was inoculated into a 384-well plate and incubated overnight at 37 °C in […]. 40 nL of the compound was added to each well to reach a final concentration of 0-10,000 nM (starting concentration 10,000 nM, 2-fold dilution, 10 points), and the cell plate with 0.1% DMSO content was incubated at 37 °C and […] for 8 d. 40 μL of Cell-Titer Glo reagent was added to test cell viability.

[1] = tested on: HCT-116 MTAP(−/−)deleted cells; assay: Inhibitory activity of compounds on the proliferation of HCT-116 MTAP(−/−)deleted cells; type: cell-based; conditions: Cell-Titer Glo, 8 d, 0-10,000 nM, 3-fold dilution, 10 points, 0.1% DMSO
Source text: Test case 1: Inhibitory activity of compounds on the proliferation of HCT-116 MTAP(−/−)deleted cells Materials and cells: HCT-116 MTAP(−/−)deleted cells were purchased from Botron Healthcare (China); RPMI-1640 medium, fetal bovine serum and penicillin-streptomycin were purchased from Thermo Fisher (United States); 384-well plates were purchased from PerkinElmer (United States); Cell-Titer Glo kit was purchased from Promega (United States).
Cell culture: HCT116 MTAP(−/−)deleted cells were cultured with RPMI 1640 medium containing 10% fetal bovine serum +1% penicillin-streptomycin at 37 °C in 5% CO2. Only cells in the logarithmic growth phase could be used for the test.
Test of inhibitory activity on cell proliferation: The Cell-Titer Glo kit was used to test the proliferation inhibitory activity of the compounds on HCT-116 MTAP(−/−)deleted cells. The cell concentration was adjusted, It was inoculated at 40 μL per well into a 384-well plate and incubated overnight at 37 °C in 5% CO2. 40 μL of the compound was added to each well to reach a final concentration of 0-10,000 nM (starting concentration 10,000 nM, 3-fold dilution, 10 points), and the cell plate with 0.1% DMSO content was incubated at 37 °C and 5% CO2 for 8 d. 40 μL of Cell-Titer Glo reagent was added to test cell viability.

Row | IC50 (HCT-116 wild-type cells; Homo sapiens, 192 h) [nM] | IC50 ([1]; Homo sapiens, 192 h) [nM] | IC50 (HCT-116 wild-type cells) [nM] | IC50 [1] [nM] | Compound
1 | 4180 | 458 | – | – | Nc1nc2cc(F)c(C(=O)N3CCCC(c4ccc(C(F)(F)F)cc4)C3)cc2n2cncc12 (centres unmarked) [Example 13, (4-amino-7-fluimidazo[1,5-a]quinoxalin-8-yl)(3-(4-(trifluoromethyl)phenyl)piperidin-1-yl)methanone]
2 | – | – | > 10000 | 83.3 | (4-amino-7-fluimidazo[1,5-a]quinoxalin-8-yl)2-(1-methylpyr azolo[3,4-b]pyridin-5-yl)piperidin-1-methanone [Example 20]
3 | > 10000 | 516 | – | – | Nc1nc2cc(F)c(C(=O)N3CCC[C@H](c4ccc(C(F)(F)F)cc4)C3)cc2n2cncc12 [Example 13A]
4 | 6380 | 472 | – | – | Nc1nc2ccc(C(=O)N3CCCCC3c3ccc(Oc4ccc(F)cc4)cc3)cc2n2cncc12 (centres unmarked) [Example 19]
5 | 512 | 6.5 | – | – | Nc1nc2cc(Cl)c(C(=O)N3CCOCC3c3ccc(C(F)(F)F)cc3)cc2n2cncc12 (stereo in doubt) [Example 4A, (3R)-3-[4-(trifluoromethyl)phenyl]morpholin-4-yl 4-amino-7-chloro(10-hydroimidazo[1,5-a]quinoxalin-8-yl)one]
6 | > 10000 | 795 | – | – | Nc1nc2cc(F)c(C(=O)N3CC(c4ccc(C(F)(F)F)cn4)C3)cc2n2cncc12 [Example 10]
7 | > 10000 | 242 | – | – | Nc1nc2ccc(C(=O)N3CCCCC3c3ccc4ccccc4n3)cc2n2cncc12 (centres unmarked) [Example 24]
8 | > 10000 | 671 | – | – | Nc1nc2ccc(C(=O)N3CCCC[C@@H]3c3ccc(F)cc3)cc2n2cncc12 [Example 14, (R)-(4-aminoimidazo[1,5-a]quinoxalin-8-yl)(2-(4-fluorophenyl)piperidin-1-yl)methanone]
9 | > 10000 | > 3000 | – | – | Nc1nc2cc(F)c(C(=O)N3CCC[C@@H](c4ccc(C(F)(F)F)cc4)C3)cc2n2cncc12 [Example 13B]
10 | > 10000 | > 3000 | – | – | Nc1nc2cc(F)c(C(=O)N3CCC[C@H]3c3ccc(C(F)(F)F)cc3)cc2n2cncc12 [Example 17, (S)-(4-amino-7-fluorimidazo[1,5-a]quinoxalin-8-yl)(2-(4-(trifluoromethyl)phenyl)pyrrolidin-1-yl)methanone]
11 | 10800 | 3880 | – | – | Nc1nc2ccc(C(=O)N3CCCC[C@@H]3c3ccc(F)cc3)cc2n2cccc12 [Example 1, (R)-(4-aminopyrrolo[1,2-a]quinoxalin-8-yl)(2-(4-fluorophenyl)piperidin-1-yl)methanone]
12 | > 10000 | 1400 | – | – | Nc1nc2ccc(C(=O)N3CCCCC3c3cnc4cccnc4c3)cc2n2cncc12 (centres unmarked) [Example 18]
13 | – | – | 8130 | 45.2 | Nc1nc2ccc(C(=O)N3CCCCC3c3ccc(OC(F)(F)F)cc3)cc2n2cncc12 (centres unmarked) [Example 22, (4-aminoimidazo[1,5-a]quinoxalin-8-yl)2-(4-(trifluoromethoxy)phenyl)piperidin-1-yl ketone]
14 | 91.1 | 3.2 | – | – | C[C@@H]1COC[C@H](c2ccc(C(F)(F)F)cc2)N1C(=O)c1cc2c(cc1F)nc(N)c1cncn12 [Example 12, (4-amino-7-fluorimidazo[1,5-a]quinoxalin-8-yl)((3R,5S)-3-methyl-5-(4-(trifluoromethyl)phenyl)morpholinyl)methanone]
15 | 6520 | 2780 | – | – | Nc1nc2cc(Cl)c(C(=O)N3CCOCC3c3ccc(C(F)(F)F)cc3)cc2n2cncc12 (stereo in doubt) [Example 4B, (3S)-3-[4-(trifluoromethyl)phenyl]morpholin-4-yl 4-amino-7-chloro(10-hydroimidazo[1,5-a]quinoxalin-8-yl)one]
16 | > 10000 | 396 | – | – | Nc1nc2cc(F)c(C(=O)N3CCC(c4ccc(C(F)(F)F)cn4)C3)cc2n2cncc12 (centres unmarked) [Example 8, (4-amino-7-fluorimidazo[1,5-a]quinoxalin-8-yl)(3-(5-(trifluoromethyl)pyridin-2-yl)pyrrolidin-1-yl)methanone]
17 | – | – | > 10000 | 80.4 | Nc1nc2ccc(C(=O)N3CCCCC3c3ccc(C(F)(F)F)cn3)cc2n2cncc12 (centres unmarked) [Example 21]
18 | 2720 | 28.8 | – | – | Nc1nc2cc(Cl)c(C(=O)N3CCCC[C@@H]3c3ccc(F)cc3)cc2n2cncc12 [Example 6, (2R)-2-(4-fluorophenyl)piperidyl4-amino-7-chloro(10-hydroimidazo[1,5-a]quinoxalin-8-yl)one]
19 | > 10000 | 1300 | – | – | Nc1nc2cc(F)c(C(=O)N3CCC[C@@H]3c3ccc(C(F)(F)F)cc3)cc2n2cncc12 [Example 16, (R)-(4-amino-7-fluorimidazo[1,5-a]quinoxalin-8-yl)(2-(4-(trifluoromethyl)phenyl)pyrrolidin-1-yl)methanone]
20 | 1690 | 24.3 | – | – | Nc1nc2cc(F)c(C(=O)N3CCCC[C@@H]3c3ccc(F)cc3)cc2n2cncc12 [Example 7, (R)-(4-amino-7-fluoroimidazo[1,5-a]quinoxalin-8-yl)(2-(4-fluorophenyl)piperidin-1-yl)methanone]
21 | > 10000 | 933 | – | – | Nc1nc2cc(F)c(C(=O)N3CCO[C@@H](c4ccc(C(F)(F)F)cc4)C3)cc2n2cncc12 [Example 15, (S)-(4-amino-7-fluoroimidazo[1,5-a]quinoxalin-8-yl)(2-(4-(trifluoromethyl)phenyl)morpholinyl)methanone]

Row | Compound | IC50 (HCT-116 wild-type cells; Homo sapiens, 192 h) [nM] | IC50 ([1]; Homo sapiens, 192 h) [nM] | IC50 (HCT-116 wild-type cells) [nM] | IC50 [1] [nM]
22 | Cn1ncc2cc(C3CCCCN3C(=O)c3ccc4nc(N)c5cncn5c4c3)cnc21 (centres unmarked) [Example 23, (4-aminoimidazo[1,5-a]quinoxalin-8-yl) 2-(1-methylpyrazolo[3,4-b]pyridin-5-yl)piperidin-1-methanone] | – | – | > 10000 | 741
